Experimental data reported in patent publication US7744590B2, “Red to near-infrared photobiomodulation treatment of the visual system in visual system disease or injury” (Medical College of Wisconsin Research Foundation, Inc., priority 2003, dated 2010).

Key:
[1] = tested on: methanol-intoxicated rats; experiment: Rod and M-cone (15 Hz/510 nm) ERG after 72 hours of methanol intoxication; format: in vivo, rat
Protocol: (§1) Methanol-intoxication Protocol.
(§2) Light-Emitting Diode Treatment.
ERG Procedures and Analyses.
All sensitivity measures were made in triplicate.
15 Hz/510 nm ERG Response. ERGs were recorded in response to a 15-Hz flickering light at a wavelength of 510 nm over a 3-log unit range of light intensity.

[2] = tested on: methanol-intoxicated rats
Protocol: Animals were randomly assigned to one of four treatment groups: (1) Untreated control, (2) LED-treated control, (3) methanol-intoxicated and (4) LED-treated methanol-intoxicated rats. Rats were placed in a thermostatically controlled plexiglass chamber (22×55×22 cm; maintained at 22-23° C.) and exposed to a mixture of N2O/O2 (1:1; flow rate 2 liters/min) for the duration of the experiment. […] In the present studies, methanol (25% w/v methanol in saline) was administered (i.p.) to N2O/O2 treated rats at an initial dose of dose 4 g/kg, followed by supplemental doses of 1.5 g/kg at 24 and 48 hours.
Light-Emitting Diode Treatment. […] Rats were placed in a plexiglass restraint device (12.7×9×7.6 cm). The LED array was positioned directly over the animal at a distance of 1 inch, exposing the entire body. Treatment consisted of irradiation at 670 nm for 2 minutes and 24 seconds resulting in a power intensity of 28 mW/cm^2 and an energy density of 4 joules/cm^2 at 5, 25 and 50 hours after the initial dose of methanol.
ERG Procedures and Analyses. ERG experiments were performed as previously described (M. T. Seme, et al., supra, 1999; M. T. Seme, et al., supra, 2001). The light stimulation apparatus consisted of a three-beam optical system. All three beams were derived from tungsten-halide lamps (50 W, 12 V). Beam intensity was controlled by using neutral density step filters. ERG recordings were differentially amplified and computer-averaged. The amplified signal was processed through a two-stage active narrow bandpass filter (the half voltage of this filter was 0.2 times the center frequency). […] The averaged responses were measured (peak-to-trough amplitude) from a calibrated digital oscilloscope display.
Before ERG analysis, ophthalmoscopic examination confirmed that all eyes were free of lenticular opacities or other gross anomalies. […] The stimulus intensity yielding a 5-μV criterion response was determined by extrapolating between the two intensity points that bracketed the 5-μV response for each animal.

[3] = tested on: methanol-intoxicated rats; experiment: Retinal histopathology by light and electron microscopy; details: rat, in vivo
From the text: as §1, §2
Histopathologic Analysis.

With CO [methanol, Methanol] the “increase of 5 μV threshold light intensity relative to control, 15-Hz/510-nm ERG” value [1] was 0.6 log units, the “maximal 15-Hz/510-nm ERG amplitude” value ([1]; 72 hours, no LED) was 18±5 μV and the “maximal rod and M-cone ERG amplitude as % of the maximum control response” value ([1]; 72 hours, no LED) was “approximately 28%”. For the same compound, the “light intensity required to elicit a threshold (5 μV) 15-Hz/510-nm ERG response” value ([1]; controls −3.0±0.1 LRRI) was −2.4±0.1 LRRI, the “increase of light intensity required for a 5-μV UV-cone response” value [2] was 0.5 log units and the “maximal UV-cone ERG response amplitude” value ([2]; 72 hours, no LED) was 18±6 μV. The “maximal UV-cone ERG amplitude as % of the maximum control response” value ([2]; no LED) was 30% and the outer retinal histopathology [3] was “Pronounced histopathologic changes”.
